In general, Kd refers to the free concentration of one partner at which half of the binding sites on the other are occupied at equilibrium, for simple one-to-one binding.

The record followed here is patent publication US20250345446A1 (Draupnir Bio ApS, priority 2022, published 2025).

Residues, ends and D or L forms follow the SMILES beside them. No end group written: not given here.

One test concerns the target T1, soluble ectodomain of sortilin-6his (Homo sapiens, UniProt Q99523, V650M).
T1 construct: the soluble ectodomain of sortilin-6his is measured by microscale thermophoresis (MST)
The experiment in a line: MST binding to soluble ectodomain of sortilin-6his. The conditions noted are these: Table 3; monofunctional peptides; MST; read-out: KD score, binding to sortilin (Kd).
Regarding `CC(C)C[C@H](NC(=O)[C@H](CC(C)C)NC(=O)[C@H](Cc1ccc(O)cc1)NC(=O)[C@@H](N)Cc1ccccc1)C(=O)O` [compound 28, FYLL-OH] (H-FYLL-OH), the Kd lay in the range of 25 to 250 nM. Still for that read-out and setting: the figure for `CC(C)C[C@H](NC(=O)[C@H](CCC(N)=O)NC(=O)[C@@H](N)CCCNC(=N)N)C(=O)N[C@@H](Cc1ccccc1)C(=O)O` [compound 164] (H-RQLF-OH) is over 2500 nM. Still for that read-out and setting: next, `CC(C)C[C@H](NC(=O)[C@H](CC(C)C)NC(=O)[C@H](CCC(N)=O)NC(=O)[C@@H](N)Cc1ccccc1)C(=O)O` [compound 23, FQLL-OH] (H-FQLL-OH): 25 to 250 nM; `CC(C)C[C@H](NC(=O)[C@H](Cc1ccccc1)NC(=O)[C@H](Cc1ccc(O)cc1)NC(=O)[C@@H](N)CCCNC(=N)N)C(=O)O` [compound 37] (H-RYFL-OH): 250 to 2500 nM; REALRWDAPLRDPAPRQLL-OH [compound 54]: under 25 nM. Still for that read-out and setting: next, `CC[C@H](C)[C@H](NC(=O)[C@H](Cc1ccc(O)cc1)NC(=O)[C@@H]1CCCN1C(=O)[C@H](CCCNC(=N)N)NC(=O)[C@H](CCCNC(=N)N)NC(=O)[C@@H]1CCCN1C(=O)[C@H](CCCCN)NC(=O)[C@H](CC(N)=O)NC(=O)[C@H](CCC(=O)O)NC(=O)[C@H](Cc1ccc(O)cc1)NC(=O)[C@@H](N)CC(C)C)C(=O)N[C@@H](CC(C)C)C(=O)O` [compound 56]: 25 to 250 nM; `CC[C@H](C)[C@H](N)C(=O)N[C@@H](CCC(N)=O)C(=O)N[C@@H](CC(C)C)C(=O)N[C@@H](CC(C)C)C(=O)O` [compound 42] (H-IQLL-OH; N-terminus assumed): 250 to 2500 nM; `CC(C)C[C@H](NC(=O)[C@H](CCCNC(=N)N)NC(=O)[C@H](C)NC(=O)[C@H](C)N)C(=O)O` [compound 196, AARL-OH] (H-AARL-OH): 250 to 2500 nM. Take `CC[C@H](C)[C@H](NC(=O)[C@H](Cc1ccc(O)cc1)NC(=O)[C@@H](N)Cc1ccccc1)C(=O)N[C@@H](CC(C)C)C(=O)O` [compound 31] (H-FYIL-OH): the dissociation constant Kd was 250 to 2500 nM.

Take “H-WSGPIGVSWGLRAAAAGFQLL-OH [compound 179]”: the Kd was under 25 nM.

Staying with this test, now noted: Table 4; small molecule bifunctional compounds; MST.
For `Cc1cc(-c2ccc(C(=O)NCCCCCCCCCCCC(=O)NCC(=O)N3CCN(c4ncc(-c5ccc6c(n5)N(Cc5cccnc5C#N)C(C)(C)C6=O)cn4)C[C@H]3C)cc2)cc(NC(=O)c2ccc(C(F)(F)F)cc2C(=O)O)n1` [BF146, 2-[[4-[4-[[12-[[2-[(2R)-4-[5-[1-[(2-cyano-3-pyridyl)methyl]-2,2-dimethyl-3-oxo-pyrrolo[2,3-b]pyridin-6-yl]pyrimidin-2-yl]-2-methyl-piperazin-1-yl]-2-oxo-ethyl]amino]-12-oxo-dodecyl]carbamoyl]phenyl]-6-methyl-2-pyridyl]carbamoyl]-5-(trifluoromethyl)benzoic acid], the “KD score, binding to sortilin (Kd)” value was 0.

Staying with this test, now noted: Table 4; small molecule bifunctional compounds; MST; read-out: KD score, binding to sortilin (Kd).
Take `C[C@@H]1CN(c2ncc(-c3ccc4c(n3)N(Cc3cccnc3C#N)C(C)(C)C4=O)cn2)CCN1C(=O)CNC(=O)CCCCCOCCOCCNC(=O)c1cccc(Oc2ccc(C(=O)N[C@@H](CCC(C)(C)C)C(=O)O)cn2)c1` [BF100, (2S)-2-[[6-[3-[2-[2-[6-[[2-[(2R)-4-[5-[1-[(2-cyano-3-pyridyl)methyl]-2,2-dimethyl-3-oxo-pyrrolo[2,3-b]pyridin-6-yl]pyrimidin-2-yl]-2-methyl-piperazin-1-yl]-2-oxo-ethyl]amino]-6-oxo-hexoxy]ethoxy]ethylcarbamoyl]phenoxy]pyridine-3-carbonyl]amino]-5,5-dimethyl-hexanoic acid]: the Kd was under 1 nM. Same read-out and setting: the figure for `C[C@@H]1CN(c2ncc(-c3ccc4c(n3)N(Cc3cccnc3C#N)C(C)(C)C4=O)cn2)CCN1C(=O)COCCCCCCCCNC(=O)c1cccc(Oc2ccc(C(=O)N[C@@H](CCC(C)(C)C)C(=O)O)cn2)c1` [BF041] is under 1 nM. The same measure, in the same setting: the figure for `C[C@@H]1CN(c2ncc(-c3ccc4c(n3)N(Cc3cccnc3C#N)C(C)(C)C4=O)cn2)CCN1C(=O)COCCOCCNC(=O)c1cccc(Oc2ccc(C(=O)N[C@@H](CCC(C)(C)C)C(=O)O)cn2)c1` [BF051, (2S)-2-[[6-[3-[2-[2-[2-[(2R)-4-[5-[1-[(2-cyano-3-pyridyl)methyl]-2,2-dimethyl-3-oxo-pyrrolo[2,3-b]pyridin-6-yl]pyrimidin-2-yl]-2-methyl-piperazin-1-yl]-2-oxo-ethoxy]ethoxy]ethylcarbamoyl]phenoxy]pyridine-3-carbonyl]amino]-5,5-dimethyl-hexanoic acid] is 1 to 10 nM; for `C[C@@H]1CN(c2ncc(-c3ccc4c(n3)N(Cc3cccnc3C#N)C(C)(C)C4=O)cn2)CCN1C(=O)COCCCCNC(=O)COc1cccc(Oc2ccc(C(=O)N[C@@H](CCC(C)(C)C)C(=O)O)cn2)c1` [BF048] it is 1 to 10 nM; for `CC(C)(C)CC[C@H](NC(=O)c1ccc(Oc2cccc(C(=O)NCCOCCOCCOCCOCCNc3ncc(-c4ccc5c(n4)N(Cc4cccnc4C#N)C(C)(C)C5=O)cn3)c2)nc1)C(=O)O` [BF062, (2S)-2-[[6-[3-[2-[2-[2-[2-[2-[[5-[1-[(2-cyano-3-pyridyl)methyl]-2,2-dimethyl-3-oxo-pyrrolo[2,3-b]pyridin-6-yl]pyrimidin-2-yl]amino]ethoxy]ethoxy]ethoxy]ethoxy]ethylcarbamoyl]phenoxy]pyridine-3-carbonyl]amino]-5,5-dimethyl-hexanoic acid] it is 1 to 10 nM. Same read-out and setting: next, `C[C@@H]1CN(c2ncc(-c3ccc4c(n3)N(Cc3cccnc3C#N)C(C)(C)C4=O)cn2)CCN1C(=O)COCCNc1cccc(Oc2ccc(C(=O)N[C@@H](CCC(C)(C)C)C(=O)O)cn2)c1` [BF047, (S)-2-(6-(3-((2-(2-((R)-4-(5-(1-((2-cyanopyridin-3-yl)methyl)-2,2-dimethyl-3-oxo-2,3-dihydro-1H-pyrrolo[2,3-b]pyridin-6-yl)pyrimidin-2-yl)-2-methylpiperazin-1-yl)-2-oxoethoxy)ethyl)amino)phenoxy)nicotinamido)-5,5-dimethylhexanoic acid]: 1 to 10 nM. As to `C[C@@H]1CN(c2ncc(-c3ccc4c(n3)N(Cc3cccnc3C#N)C(C)(C)C4=O)cn2)CCN1C(=O)Cc1cn(CCCCCCCCCn2cc(-c3cccc(Oc4ccc(C(=O)N[C@@H](CCC(C)(C)C)C(=O)O)cn4)c3)nn2)nn1` [BF104, (2S)-2-[[6-[3-[1-[9-[4-[2-[(2R)-4-[5-[1-[(2-cyano-3-pyridyl)methyl]-2,2-dimethyl-3-oxo-pyrrolo[2,3-b]pyridin-6-yl]pyrimidin-2-yl]-2-methyl-piperazin-1-yl]-2-oxo-ethyl]triazol-1-yl]nonyl]triazol-4-yl]phenoxy]pyridine-3-carbonyl]amino]-5,5-dimethyl-hexanoic acid], the Kd is under 1 nM. The same measure, in the same setting: the figure for `CC(C)(C)CC[C@H](NC(=O)c1ccc(Oc2cccc(C(=O)NCCOCCOCCOCc3ccc(-c4cccc5ccncc45)c(OCCc4ccc(-c5cccc6ccncc56)cc4)c3)c2)nc1)C(=O)O` [BF033, (2S)-2-[[6-[3-[2-[2-[2-[[4-(8-isoquinolyl)-3-[2-[4-(8-isoquinolyl)phenyl]ethoxy]phenyl]methoxy]ethoxy]ethoxy]ethylcarbamoyl]phenoxy]pyridine-3-carbonyl]amino]-5,5-dimethyl-hexanoic acid] is under 1 nM; for `C[C@@H]1CN(c2ncc(-c3ccc4c(n3)N(Cc3cccnc3C#N)C(C)(C)C4=O)cn2)CCN1C(=O)CNC(=O)COCCOCCCCCCNC(=O)c1cccc(Oc2ccc(C(=O)N[C@@H](CCC(C)(C)C)C(=O)O)cn2)c1` it is 1 to 10 nM; for `CC(C)(C)CC[C@H](NC(=O)c1ccc(Oc2cccc(C(=O)NCCOCCOCCOCCOCCOCCOCc3ccc(-c4cccc5ccncc45)c(OCCc4ccc(-c5cccc6ccncc56)cc4)c3)c2)nc1)C(=O)O` [BF044, (2S)-2-[[6-[3-[2-[2-[2-[2-[2-[2-[[4-(8-isoquinolyl)-3-[2-[4-(8-isoquinolyl)phenyl]ethoxy]phenyl]methoxy]ethoxy]ethoxy]ethoxy]ethoxy]ethoxy]ethylcarbamoyl]phenoxy]pyridine-3-carbonyl]amino]-5,5-dimethyl-hexanoic acid] it is 10 to 250 nM.

Take `CC(C)(C)CC[C@H](NC(=O)c1ccc(Oc2cccc(OCC(=O)NCCOCCOCCOCCNc3ncc(-c4ccc5c(n4)N(Cc4cccnc4C#N)C(C)(C)C5=O)cn3)c2)nc1)C(=O)O` [BF137, (2S)-2-[[6-[3-[2-[2-[2-[2-[2-[[5-[1-[(2-cyano-3-pyridyl)methyl]-2,2-dimethyl-3-oxo-pyrrolo[2,3-b]pyridin-6-yl]pyrimidin-2-yl]amino]ethoxy]ethoxy]ethoxy]ethylamino]-2-oxo-ethoxy]phenoxy]pyridine-3-carbonyl]amino]-5,5-dimethyl-hexanoic acid]: the Kd was under 1 nM.

For `CC(C)(C)CC[C@H](NC(=O)c1ccc(Oc2cccc(C(=O)NCCOCCOCCOCCOCCOCc3ccc(-c4cccc5ccncc45)c(OCCc4ccc(-c5cccc6ccncc56)cc4)c3)c2)nc1)C(=O)O` [BF037, (2S)-2-[[6-[3-[2-[2-[2-[2-[2-[[4-(8-isoquinolyl)-3-[2-[4-(8-isoquinolyl)phenyl]ethoxy]phenyl]methoxy]ethoxy]ethoxy]ethoxy]ethoxy]ethylcarbamoyl]phenoxy]pyridine-3-carbonyl]amino]-5,5-dimethyl-hexanoic acid], the Kd was under 1 nM. On the same count and under the same terms, the figure for `C[C@@H]1CN(c2ncc(-c3ccc4c(n3)N(Cc3cccnc3C#N)C(C)(C)C4=O)cn2)CCN1C(=O)COCCCCNC(=O)c1cccc(Oc2ccc(C(=O)N[C@@H](CCC(C)(C)C)C(=O)O)cn2)c1` [BF045] is 1 to 10 nM. As for `Cc1nc2cc(F)c(-c3cnc(OCCCCCn4cc(COCCOCCOCCOCCNC(=O)COc5cccc(Oc6ccc(C(=O)N[C@@H](CCC(C)(C)C)C(=O)O)cn6)c5)nn4)nc3)nc2c(N[C@H](C)c2cc(C#N)ccc2F)c1Cl` [BF084, (2S)-2-[[6-[3-[2-[2-[2-[2-[2-[[1-[5-[5-[7-chloro-8-[[(1R)-1-(5-cyano-2-fluoro-phenyl)ethyl]amino]-3-fluoro-6-methyl-1,5-naphthyridin-2-yl]pyrimidin-2-yl]oxypentyl]triazol-4-yl]methoxy]ethoxy]ethoxy]ethoxy]ethylamino]-2-oxo-ethoxy]phenoxy]pyridine-3-carbonyl]amino]-5,5-dimethyl-hexanoic acid], the Kd lay within 1 to 10 nM.
